# Measured values from patent US20230279025A1, “KRAS G12D INHIBITORS” (Mirati Therapeutics, Inc., priority 2020, published 2023).
# Target: KRas G12D (Homo sapiens (Human), UniProt P01116, G12D)
# Test: KRas G12D Binding Assay (TR-FRET displacement of Cy5 labelled tracer)
# Conditions: GDP-loaded KRAS G12D (amino acids 1:169), 60 minute incubation at 22° C.
# Protocol: After a 60 minute incubation at 22° C., the reaction was measured using a PerkinElmer EnVision multimode plate reader via TR-FRET dual wavelength detection, and the percent of control (POC) calculated using a ratiometric emission factor. […] The POC values were fit to a 4-parameter logistic curve and the IC50 value was determined as the concentration where the curve crosses 50 POC.
# ND stands for “not determined.”
# Sequence of KRas G12D (P01116 other isoform, or with tags, fused parts or gaps G12D): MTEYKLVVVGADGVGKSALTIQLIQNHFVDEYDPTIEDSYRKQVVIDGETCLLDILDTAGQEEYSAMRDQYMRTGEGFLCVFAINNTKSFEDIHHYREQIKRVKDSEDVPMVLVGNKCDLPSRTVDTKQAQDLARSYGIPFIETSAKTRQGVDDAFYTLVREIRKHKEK
row,Compound,IC50 [nM]
1,"Cc1cc(-c2ncc3c(N4CC5CCC(C4)N5)nc(OC[C@@]45CCCN4C[C@H](F)C5)nc3c2F)c2cn[nH]c2c1 (stereo in doubt) [Example 391, 4-((1R,5S)-3,8-diazabicyclo[3.2.1]octan-3-yl)-8-fluoro-2-((2-fluorotetrahydro-1H-pyrrolizin-7a(5H)-yl)methoxy)-7-(6-methyl-1H-indazol-4-yl)pyrido[4,3-d]pyrimidine]",662
2,"CC(C)c1ccc(O)cc1-c1ncc2c(N3CC4CCC(C3)N4)nc(OC[C@@]34CCCN3C[C@H](F)C4)nc2c1F (stereo in doubt) [Example 399, 3-(4-((1R,5S)-3,8-diazabicyclo[3.2.1]octan-3-yl)-8-fluoro-2-((2-fluorotetrahydro-1H-pyrrolizin-7a(5H)-yl)methoxy)pyrido[4,3-d]pyrimidin-7-yl)-4-isopropylphenol]",2.7
3,"Cc1c(Cl)cc2[nH]ncc2c1-c1ncc2c(N3CC4CCC(C3)N4)nc(OC[C@@]34CCCN3C[C@H](F)C4)nc2c1F (stereo in doubt) [Example 401, 4-((1R,5S)-3,8-diazabicyclo[3.2.1]octan-3-yl)-7-(6-chloro-5-methyl-1H-indazol-4-yl)-8-fluoro-2-((2-fluorotetrahydro-1H-pyrrolizin-7a(5H)-yl)methoxy)pyrido[4,3-d]pyrimidine]",2.8
4,"CC(C)(O)c1ccccc1-c1ncc2c(N3CC4CCC(C3)N4)nc(OC[C@@]34CCCN3C[C@H](F)C4)nc2c1F (stereo in doubt) [Example 402, 2-(2-(4-((1R,5S)-3,8-diazabicyclo[3.2.1]octan-3-yl)-8-fluoro-2-((2-fluorotetrahydro-1H-pyrrolizin-7a(5H)-yl)methoxy)pyrido[4,3-d]pyrimidin-7-yl)phenyl)propan-2-ol]",8020
5,"CO[C@H]1CN2CCC[C@]2(COc2nc(N3CC4CCC(C3)N4)c3cnc(-c4cc(O)cc5cccc(F)c45)c(F)c3n2)C1 (stereo in doubt) [Example 406, 4-(4-((1R,5S)-3,8-diazabicyclo[3.2.1]octan-3-yl)-8-fluoro-2-((2-methoxytetrahydro-1H-pyrrolizin-7a(5H)-yl)methoxy)pyrido[4,3-d]pyrimidin-7-yl)-5-fluoronaphthalen-2-ol]",0.9
6,"CC(C)(F)c1ccccc1-c1ncc2c(N3CC4CCC(C3)N4)nc(OC[C@@]34CCCN3C[C@H](F)C4)nc2c1F (stereo in doubt) [Example 407, 4-((1R,5S)-3,8-diazabicyclo[3.2.1]octan-3-yl)-8-fluoro-7-(2-(2-fluoropropan-2-yl)phenyl)-2-((2-fluorotetrahydro-1H-pyrrolizin-7a(5H)-yl)methoxy)pyrido[4,3-d]pyrimidine]",560
7,"N#Cc1ccccc1-c1ncc2c(N3CC4CCC(C3)N4)nc(OC[C@@]34CCCN3C[C@H](F)C4)nc2c1F (stereo in doubt) [Example 409, 2-(4-((1R,5S)-3,8-diazabicyclo[3.2.1]octan-3-yl)-8-fluoro-2-((2-fluorotetrahydro-1H-pyrrolizin-7a(5H)-yl)methoxy)pyrido[4,3-d]pyrimidin-7-yl)benzonitrile]",2230
8,"C#Cc1cccc2cc(O)cc(-c3ncc4c(N5CC6CCC(C5)N6)nc(OC[C@@]56CCCN5C[C@H](OC)C6)nc4c3F)c12 (stereo in doubt) [Example 410, 4-(4-((1R,5S)-3,8-diazabicyclo[3.2.1]octan-3-yl)-8-fluoro-2-((2-methoxytetrahydro-1H-pyrrolizin-7a(5H)-yl)methoxy)pyrido[4,3-d]pyrimidin-7-yl)-5-ethynylnaphthalen-2-ol]",1
9,"Fc1c(-c2ccccc2Cl)ncc2c(N3CC4CCC(C3)N4)nc(OC[C@@]34CCCN3C[C@H](F)C4)nc12 (stereo in doubt) [Example 414, 4-((1R,5S)-3,8-diazabicyclo[3.2.1]octan-3-yl)-7-(2-chlorophenyl)-8-fluoro-2-((2-fluorotetrahydro-1H-pyrrolizin-7a(5H)-yl)methoxy)pyrido[4,3-d]pyrimidine]",873
